Reference: patent US7868047B2, “Anti-inflammatory and psoriasis treatment and protein kinase inhibition by hydroxy stilbenes and novel stilbene derivatives and analogues” (Welichem Biotech Inc., priority 1999, dated 2011)
Values joined by “and” are separate entries in the source; they are usually repeats but may differ in a detail not shown here. Equal values may be shown once. Read-outs that look alike come from different tables or passages of the source. Values belong to the compound of their own block, whether it stands above or below them.

Columns and labels:
[1] = system: human PBMC; test: Proliferation of PHA-stimulated human PBMC (MTT); assay type: cell-based; conditions: for IC50: MTT after 48 hours
Procedure: (§1) (a). Effect on proliferation and IFN-γ production of human peripheral blood mononuclear cells (PBMC) stimulated by phytochemagglutinin (PHA).
(§2) Experiment: PBMC were cultured with PHA and cultured with titrated concentrations of compounds or solvent, or media alone using standard cell culture techniques. The MTT assay was performed after 48 hours of culture. Supernatants were collected after 48 hours of culture and levels of IFN-γ were assayed by ELISA.

[2] = system: IFN-γ; test: IFN-γ production by PHA-stimulated human PBMC (ELISA); assay type: cell-based; conditions: for IC50: PHA-stimulated human PBMC, supernatant after 48 hours, ELISA
Procedure: as §1, §2

[3] = system: human white blood cells (WBC); test: Migration of human white blood cells induced by leukotriene B4 (agarose plate); assay type: cell-based; conditions: for % Migration: towards LTB4, 5 h
Procedure: Experiment: WBC collected from donors was mixed with equal volume of 3% dextran (in 0.15M NaCl). The red blood cells were sedimented (45 minutes, room temperature) and removed. Any remaining red blood cells in the plasma were removed by adding 150 mM of Tris-NH4Cl. The leukocyte-rich plasma was washed twice in Hanks balanced salts solution containing 20 mM HEPES. The WBC was then transferred to RPMI-1640 medium and adjusted to a density of 5×10^7 cells/ml. An agarose plate assay system (Nelson et al. 1978) was used to measure the WBC migration. Briefly, a 0.8% agarose solution was prepared with complete RPMI-1640 cell culture medium. About 3.5 ml of this agarose solution was transferred to a glass slide before it solidified. Wells were made on the slide in a 3×6 array fashion (02 mm, inter-well distance 3 mm) once the agarose had solidified. LTB4 was dissolved in anhydrous ethanol to 104 ng/ml and further diluted with the RPMI-1640 medium to 10 ng/ml for the test. Compound 39B was dissolved in DMSO, diluted with RPMI-1640 to 10^3 μg/ml and tested at the following concentrations: 100, 10, 1, 0.1 and 0.01 μg/ml. Ten microlitres of cell suspension with different concentrations of compound 39B was added to each well of the center row of the three rows of wells. The same volume of LTB4 in RPMI-1640 medium or the medium alone was added to wells in the other rows and served as controls. After 5 h incubation (5% CO2, 37° C.) the test slides were fixed with 100% methanol (30 min) and dried at 4° C. (overnight). The slides were then examined microscopically. The migration index was defined as the average distances that cells migrated towards the positive LTB4 well divided by that of spontaneous migration. The percentage migration was compared between treatment and the non-drug control. The dose-effect relationship was determined by plotting the percentage chemotaxis vs concentration for IC50 values.

[4] = system: VEGF; test: VEGF protein expression of keratinocytes induced by rhTGF-α (ELISA); assay type: cell-based, human; conditions: for VEGF: supernatant, rhTGF-α 100 ng/ml, 24 h
Procedure: Experiment: Compound 39B was dissolved in DMSO, diluted with keratinocyte-serum-free medium (KC-SFM) to 10^3 μg/ml, further diluted with the culture medium and tested at the following concentrations: 10, 1, 0.1 and 0.01 μg/ml. Prime cultures of keratinocytes were obtained from a commercial source and maintained with KC-SFM at a cell density of 10^6/ml. In the test, cells were cultured in 24-well plates and incubated at 37° C. in 5% CO2 first for 4 h, and then treated with rhTGF-α (final concentration 100 ng/ml) and the test compound at different concentrations (0.01-10 μg/ml). Medium without test compound was the negative control. The culture supernatant from each well was separately collected after an additional 24 h incubation and centrifuged at 2000 rpm for 5 minutes before measuring the VEGF concentration. VEGF concentration in the supernatant in each well was calculated based on measurements taken using an ELISA kit, according to the manufacturer's instructions.

[5] = system: TNF-α; test: Endotoxemia mouse model, serum TNF-α after LPS; assay type: in vivo; conditions: for TNF-α levels in mice blood induced by LPS: P<0.05; for TNF-α: serum 150 min after LPS 40 mg/kg IP, compounds 25 mg/kg then 3 x 12.5 mg/kg IP (dexamethasone 0.4 then 3 x 0.2 mg/kg)
Source text: The in vivo endotoxemia model used in these studies represents a mouse showing the early inflammatory response. Such severe infection can be caused by Gram negative bacteria may lead to the development of septic shock. This toxicity is caused by the lipopolysaccharide (LPS) component of the bacterial cell wall, and injection of LPS into mice can mimic the physiological response typical of the septic shock syndrome. LPS-mediated toxicity is due to the release of cytokines such as TNF-α, IL-1 and IFN-γ by activated macrophages, and the degree of toxicity can be measured by the level of these cytokines in the blood.
Experiment: Test compounds were dissolved and formulated in 50% PEG-400 in water. Female Balb/c mice (˜20 g) were first injected separately intraperitoneally (IP) with 25 mg/kg of each test compound, then challenged by injection with 40 mg/kg lipopolysaccharide (LPS) (IP) 30 minutes later. One drug injection with 12.5 mg/kg of test compound was done at the same time as (LPS challenge and two subsequent sequential injections at 30 minutes intervals. Positive control of dexamethasone was administered in a similar manner starting at 0.4 mg/kg and subsequently 0.2 mg/kg for three additional injections. Mice were sacrificed and blood collected by cardiac puncture 150 minutes after LPS challenge. The serum TNF-α levels were determined by ELISA. Each test group was comprised of six mice. Group of mice injected with the vehicle alone was used as negative control.

[6] = system: TPA-induced ear edema; test: TPA-induced ear edema model; assay type: in vivo, mouse; conditions: TPA 0.01%, ear thickness 6 hours after TPA
Procedure: Experiment: Three representative compounds, 5-(2-phenylethenyl)-2-1-propyl-1,3-benzenediol, as previously reported, a closely related stilbene derivative (WO 0142231) and compound 39B, a novel compound of the current invention, were assayed against the edema on female mice (Balb/c) aged 10-12 weeks, using 0.01% Calcitriol (a commercial standard) as a positive control. Phorbol-12-myristate-13-acetate (TPA) was used as the edema inducer. TPA and the test compounds were all dissolved in 100% ethanol and 20 μl applied on the right ear of the mouse with six mice per group. The TPA concentration used was 0.01% (w/v). Ear thickness was measured 6 hours after TPA treatment to determine if edema was decreased. In each experiment replicated groups of TPA treated mice were treated with either 5-(2-phenylethenyl)-2-1-propyl-1,3-benzenediol, Calcitriol, compound 39B or only ethanol, and the level of inhibition was obtained by measuring the thickness of the ear and expressing the difference in thickness of the treated ear from that of the ethanol treated ear, as a percentage.

[7] = system: DSS-induced IBD; test: DSS (2%) IBD mouse model, preventive experiment; assay type: in vivo; conditions: 500 mg/kg/day oral with 2% DSS, day 7
Procedure: To assess the in vivo efficacy for preventive and therapeutic activities of these compounds on IBD, two experiments were designed and tested using the dextran sulfate sodium (DSS) experimental mouse model for human IBD. For the preventive experiment, compounds 9A and 39B were simultaneously administrated orally with 2% DSS at the dose of 500 mg/kg/day. Vehicle alone and glucocorticoid (dexamethasone 20 mg/kg/day) were used as controls. At day 7, mice were sacrificed, examined for stool appearance, diarrhea and colon macroscopic damage including ulceration, inflammation and adhesion. Colon samples were also taken and fixed in 10% formalin for histological assessment of architecture, ulceration, inflammation and serosal damage.

[8] = system: acute colon inflammation induced by 5% DSS; test: DSS (5%) acute colon inflammation mouse model, therapeutic experiment; assay type: in vivo
Source text: To assess the in vivo efficacy for preventive and therapeutic activities of these compounds on IBD, two experiments were designed and tested using the dextran sulfate sodium (DSS) experimental mouse model for human IBD.
For the therapeutic experiment a further experiment was done to test different doses of 9A on severe, acute intestinal inflammation in mice induced by a high dose of DSS (5%). In this experiment, drug treatment started from day 3 post DSS induction when disease symptom was established. 9A (200 mg/kg or 100 mg/kg) was administered through oral […] once daily and a commercial drug, sulfasalazine (SASP, 100 mg/kg/day) was used as positive control. Experiment was terminated at day 7 and the efficacy was assessed.

[9] = system: Human keratinocytes; test: Human keratinocyte proliferation (MTT); assay type: cell-based; conditions: for IC50: Homo sapiens, Keratinocyte, in the presence of IFN-γ, MTT after 48 hours
Procedure: Human keratinocytes were cultured in the presence of IFN-γ and titrated concentrations of drug or the vehicle. The MTT assay was performed after 48 hours of culture.

[10] = PHA-stimulated, read-out: IC50 against human PBMC proliferation
[11] = Homo sapiens, PBMC, PHA-stimulated, read-out: IC50 against human PBMC proliferation
[12] = Homo sapiens, PBMC, PHA-stimulated, read-out: IC50 against human PBMC proliferation (unit inferred)

Compound: COc1cc(/C=C/c2ccccc2)cc(OC)c1C(C)C [Compound 8A, 3,5-Dimethoxy-4-isopropyl-trans-stilbene]
melting point: 64 to 66 °C

Compound: CCc1c(O)cc(/C=C/c2ccccc2)cc1O [Compound 16A-a, 3,5-Dihydroxy-4-ethyl-trans-stilbene]
melting point: 143 to 146 °C

Compound: O=C(O)c1cc(/N=N/c2ccc(S(=O)(=O)Nc3ccccn3)cc2)ccc1O [SASP, sulfasalazine, reference compound]
Bleeding score ([8]; 100 mg/kg oral daily, day seven, mean ± SEM, n = 9, 1 = normal, 2 = bloody stool, 4 = gross bleeding): 3.6 ± 0.24 | Diarrheal score ([8]; 100 mg/kg oral daily, day seven, mean ± SEM, n = 9, 1 = normal, 2 = loose stools, 4 = diarrhea): 2.8 ± 0.49 | survival rate vs control treatment ([8]; 5% DSS, treatment from day 3): significantly higher survival rate

Compound: C[C@@H]1C[C@H]2[C@@H]3CCC4=CC(=O)C=C[C@]4(C)[C@@]3(F)[C@@H](O)C[C@]2(C)[C@@]1(O)C(=O)CO [Dexamethasone, dexamethasone, reference compound]
TNF-α [5]: 281.3 ± 67.2 pg/mL

Compound: Oc1ccc(C=Cc2cc(O)cc(O)c2)cc1 [Resveratrol, resveratrol, reference compound]
IC50 [1, 11]: > 50 µM | IC50 [1, 12]: > 50 µM | IC50 against human PBMC proliferation ([1]; PHA-stimulated, 50 the highest concentration tested): > 50 µM | IC50 [2]: 39.2 µM | IC50 [9]: > 50 µM

Compound: CCc1c(OC)cc(/C=C/c2ccccc2)cc1OC [Compound 15A-a, 3,5-Dimethoxy-4-ethyl-trans-stilbene]
melting point: 70 to 73 °C

Compound: CCCCCCCCCCCCCCc1c(O)cc(/C=C/c2ccccc2)cc1O [Compound 16A-b, 3,5-Dihydroxy-4-myristyl-trans-stilbene]
melting point: 125 to 128 °C

Compound: CCCCCCCCCCCCCCc1c(OC)cc(/C=C/c2ccccc2)cc1OC [Compound 15A-b, 3,5-Dimethoxy-4-myristyl-trans-stilbene]
melting point: 68 to 70 °C

Compound: C=C1/C(=C\C=C2/CCC[C@]3(C)[C@@H]([C@H](C)CCCC(C)(C)O)CC[C@@H]23)C[C@@H](O)C[C@@H]1O [Calcitriol, reference compound]
% edema inhibition ([6]; 0.01% single topical): 31% and 31.2%

The next lines start with results.

IC50 [2]: 4.16 µM
Compound: CC(C)c1c(O)cc(C=Cc2ccc(F)cc2)cc1O [Compound 39B]
IC50 [1, 10]: 7.36 µM | inhibition of migration of WBC towards LTB4 [3]: dose-dependent manner | % Migration ([3]; 0.32 μM): 88.46 ± 18.6% | % Migration ([3]; 1.6 μM): 83.85 ± 15.9% | % Migration ([3]; 8 μM): 58.46 ± 4.3% | % Migration ([3]; 40 μM): 13.07 ± 5.8% | VEGF ([4]; 1.6 μM): 34.4 ± 2.0 pg/mL | VEGF ([4]; 8 μM): 33.6 ± 1.8 pg/mL | decrease of VEGF protein concentration ([4]; 40 μM, 24-h treatment): 100% | VEGF ([4]; 40 μM): 0 ± 0 pg/mL | TNF-α levels in mice blood induced by LPS [5]: decreased significantly | TNF-α [5]: 601.6 ± 211.9 pg/mL | % edema inhibition ([6]; 0.3% single topical): 85% and 85.2% | macroscopic and microscopic diseases scores [7]: significantly decreased

melting point: 149 to 152 °C
Compound: COc1cc(/C=C/c2ccccc2)cc(OC)c1Br [Compound 14A, 3,5-Dimethoxy-4-bromo-trans-stilbene]

IC50 [2]: 2.55 µM
Compound: CCCc1c(O)cc(C=Cc2ccc(O)cc2)cc1O [Compound 13B, 5-[2-(4-Hydroxyphenyl)ethenyl]-2-1-propyl-1,3-benzenediol]
potency in inhibiting PBMC proliferation relative to resveratrol [1]: 20 times | IC50 [1, 11]: 2.97 µM | IC50 [1, 12]: 2.97 µM | potency in inhibiting IFN-γ production relative to resveratrol [2]: more than 15 times | potency on keratinocyte proliferation relative to resveratrol [9]: more than 10 times | IC50 [9]: 4.3 µM

IC50 [2]: 3.8 µM
Compound: CCCc1c(O)cc(C=Cc2ccccc2F)cc1O [Compound 37B, 5-[2-(2-Fluorophenyl)ethenyl]-2-1-propyl-1,3-benzenediol]
IC50 [1, 11]: 5.62 µM | TNF-α levels in mice blood induced by LPS [5]: decreased significantly | TNF-α [5]: 638.9 ± 273.0 pg/mL

IC50 [2]: 4.29 µM
Compound: CC(C)c1c(O)cc(C=Cc2cccc(F)c2)cc1O [Compound 38B, 5-[2-(3-Fluorophenyl)ethenyl]-2-1-propylphenyl-1,3-diol]
IC50 [1, 10]: 9.91 µM
